Laboratory results from ChEMBL document CHEMBL5291721, “A preclinical secondary pharmacology resource illuminates target-adverse drug reaction associations of marketed drugs” (Nat Commun, 2023).

Assays:
[1] = biological target: T1, Adenosine receptor A3 (Homo sapiens, UniProt P0DMS8)
T1 sequence (P0DMS8 whole entry): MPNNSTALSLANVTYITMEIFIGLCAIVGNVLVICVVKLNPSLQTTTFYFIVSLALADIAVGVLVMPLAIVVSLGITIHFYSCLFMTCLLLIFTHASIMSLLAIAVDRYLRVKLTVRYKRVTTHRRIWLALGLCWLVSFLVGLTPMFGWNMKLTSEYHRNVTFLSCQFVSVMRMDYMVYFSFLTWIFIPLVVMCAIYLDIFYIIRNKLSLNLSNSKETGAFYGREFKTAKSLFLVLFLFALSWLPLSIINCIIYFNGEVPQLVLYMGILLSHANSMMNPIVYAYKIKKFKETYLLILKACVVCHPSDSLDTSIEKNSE

[2] = biological target: T2, Muscarinic acetylcholine receptor M2 (Homo sapiens, UniProt P08172)
T2 sequence (P08172 whole entry): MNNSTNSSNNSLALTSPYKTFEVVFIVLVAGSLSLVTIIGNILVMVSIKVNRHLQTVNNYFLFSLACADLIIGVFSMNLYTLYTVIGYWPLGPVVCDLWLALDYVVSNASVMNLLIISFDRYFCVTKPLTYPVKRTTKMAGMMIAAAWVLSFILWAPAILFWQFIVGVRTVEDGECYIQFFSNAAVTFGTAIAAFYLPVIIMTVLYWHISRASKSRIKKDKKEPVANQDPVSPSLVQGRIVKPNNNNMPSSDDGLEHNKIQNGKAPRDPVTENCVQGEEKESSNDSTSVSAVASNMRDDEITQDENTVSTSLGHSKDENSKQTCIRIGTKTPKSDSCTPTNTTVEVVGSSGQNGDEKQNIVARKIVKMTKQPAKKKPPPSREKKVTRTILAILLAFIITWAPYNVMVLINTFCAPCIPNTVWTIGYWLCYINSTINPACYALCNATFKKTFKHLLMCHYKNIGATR

[3] = biological target: T3, Estrogen receptor (Homo sapiens, UniProt P03372)
T3 sequence (P03372 whole entry): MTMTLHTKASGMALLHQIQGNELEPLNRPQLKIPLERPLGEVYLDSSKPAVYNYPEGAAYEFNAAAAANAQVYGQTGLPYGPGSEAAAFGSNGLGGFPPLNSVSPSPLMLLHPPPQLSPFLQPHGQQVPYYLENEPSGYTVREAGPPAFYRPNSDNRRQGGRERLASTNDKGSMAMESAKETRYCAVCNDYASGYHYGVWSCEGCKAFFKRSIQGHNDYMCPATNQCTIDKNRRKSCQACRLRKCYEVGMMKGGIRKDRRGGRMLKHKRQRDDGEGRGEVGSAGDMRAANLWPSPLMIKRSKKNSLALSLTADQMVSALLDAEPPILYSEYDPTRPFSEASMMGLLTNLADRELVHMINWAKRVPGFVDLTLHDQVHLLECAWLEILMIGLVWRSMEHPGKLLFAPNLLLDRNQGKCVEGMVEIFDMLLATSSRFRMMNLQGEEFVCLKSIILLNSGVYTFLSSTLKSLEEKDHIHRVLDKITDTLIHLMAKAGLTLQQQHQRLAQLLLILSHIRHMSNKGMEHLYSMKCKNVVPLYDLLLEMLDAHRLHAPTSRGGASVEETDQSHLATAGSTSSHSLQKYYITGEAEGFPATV

[4] = biological target: T4, 5-hydroxytryptamine receptor 1A (Homo sapiens, UniProt P08908)
T4 sequence (P08908 whole entry): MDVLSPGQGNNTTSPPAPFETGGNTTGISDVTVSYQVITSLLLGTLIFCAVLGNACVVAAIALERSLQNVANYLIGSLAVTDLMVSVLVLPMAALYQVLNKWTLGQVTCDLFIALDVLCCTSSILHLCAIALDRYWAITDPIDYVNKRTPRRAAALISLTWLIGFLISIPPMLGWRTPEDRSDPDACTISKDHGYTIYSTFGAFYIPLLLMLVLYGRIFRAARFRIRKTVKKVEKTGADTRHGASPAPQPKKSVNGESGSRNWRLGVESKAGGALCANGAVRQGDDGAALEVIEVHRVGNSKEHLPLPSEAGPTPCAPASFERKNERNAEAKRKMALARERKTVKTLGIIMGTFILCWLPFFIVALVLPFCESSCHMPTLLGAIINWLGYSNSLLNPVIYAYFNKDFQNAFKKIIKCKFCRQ

[5] = biological target: Vascular endothelial growth factor receptor 2 (Homo sapiens, UniProt P35968); assay type: functional
[6] = biological target: T5, Amine oxidase [flavin-containing] A (Homo sapiens, UniProt P21397); assay type: functional
T5 sequence (P21397 whole entry): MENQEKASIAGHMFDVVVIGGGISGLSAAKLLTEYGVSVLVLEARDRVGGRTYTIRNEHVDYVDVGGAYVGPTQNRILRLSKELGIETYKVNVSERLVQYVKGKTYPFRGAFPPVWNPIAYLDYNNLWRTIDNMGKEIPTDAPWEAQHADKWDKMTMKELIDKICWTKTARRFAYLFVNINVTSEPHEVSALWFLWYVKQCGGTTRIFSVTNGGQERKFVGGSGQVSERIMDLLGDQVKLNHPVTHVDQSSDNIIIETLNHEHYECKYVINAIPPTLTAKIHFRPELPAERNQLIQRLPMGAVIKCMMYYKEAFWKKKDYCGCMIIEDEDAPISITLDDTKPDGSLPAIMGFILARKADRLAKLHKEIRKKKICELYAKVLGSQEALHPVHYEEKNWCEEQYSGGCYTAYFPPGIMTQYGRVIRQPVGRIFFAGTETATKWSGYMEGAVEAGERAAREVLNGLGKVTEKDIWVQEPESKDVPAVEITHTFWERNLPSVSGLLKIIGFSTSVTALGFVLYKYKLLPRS

[7] = biological target: Sodium-dependent noradrenaline transporter (Homo sapiens, UniProt P23975)
[8] = biological target: Sodium-dependent dopamine transporter (Homo sapiens, UniProt Q01959)
[9] = biological target: T6, Thromboxane A2 receptor (Homo sapiens, UniProt P21731); assay type: functional, cell-based
T6 sequence (P21731 whole entry): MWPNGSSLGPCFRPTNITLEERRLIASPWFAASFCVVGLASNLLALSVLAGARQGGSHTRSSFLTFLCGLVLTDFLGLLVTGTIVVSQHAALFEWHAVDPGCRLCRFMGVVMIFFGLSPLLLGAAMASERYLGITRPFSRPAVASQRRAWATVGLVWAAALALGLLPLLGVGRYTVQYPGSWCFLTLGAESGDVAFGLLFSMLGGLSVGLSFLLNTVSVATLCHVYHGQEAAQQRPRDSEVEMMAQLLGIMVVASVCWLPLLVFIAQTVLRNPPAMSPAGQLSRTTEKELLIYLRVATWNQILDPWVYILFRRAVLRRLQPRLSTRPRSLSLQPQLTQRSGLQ

[10] = biological target: T6, Thromboxane A2 receptor; assay type: functional, cell-based; remark: listed apart in the source
Further: assay procedure not described here.

Chain of Vascular endothelial growth factor receptor 2 (P35968 whole entry): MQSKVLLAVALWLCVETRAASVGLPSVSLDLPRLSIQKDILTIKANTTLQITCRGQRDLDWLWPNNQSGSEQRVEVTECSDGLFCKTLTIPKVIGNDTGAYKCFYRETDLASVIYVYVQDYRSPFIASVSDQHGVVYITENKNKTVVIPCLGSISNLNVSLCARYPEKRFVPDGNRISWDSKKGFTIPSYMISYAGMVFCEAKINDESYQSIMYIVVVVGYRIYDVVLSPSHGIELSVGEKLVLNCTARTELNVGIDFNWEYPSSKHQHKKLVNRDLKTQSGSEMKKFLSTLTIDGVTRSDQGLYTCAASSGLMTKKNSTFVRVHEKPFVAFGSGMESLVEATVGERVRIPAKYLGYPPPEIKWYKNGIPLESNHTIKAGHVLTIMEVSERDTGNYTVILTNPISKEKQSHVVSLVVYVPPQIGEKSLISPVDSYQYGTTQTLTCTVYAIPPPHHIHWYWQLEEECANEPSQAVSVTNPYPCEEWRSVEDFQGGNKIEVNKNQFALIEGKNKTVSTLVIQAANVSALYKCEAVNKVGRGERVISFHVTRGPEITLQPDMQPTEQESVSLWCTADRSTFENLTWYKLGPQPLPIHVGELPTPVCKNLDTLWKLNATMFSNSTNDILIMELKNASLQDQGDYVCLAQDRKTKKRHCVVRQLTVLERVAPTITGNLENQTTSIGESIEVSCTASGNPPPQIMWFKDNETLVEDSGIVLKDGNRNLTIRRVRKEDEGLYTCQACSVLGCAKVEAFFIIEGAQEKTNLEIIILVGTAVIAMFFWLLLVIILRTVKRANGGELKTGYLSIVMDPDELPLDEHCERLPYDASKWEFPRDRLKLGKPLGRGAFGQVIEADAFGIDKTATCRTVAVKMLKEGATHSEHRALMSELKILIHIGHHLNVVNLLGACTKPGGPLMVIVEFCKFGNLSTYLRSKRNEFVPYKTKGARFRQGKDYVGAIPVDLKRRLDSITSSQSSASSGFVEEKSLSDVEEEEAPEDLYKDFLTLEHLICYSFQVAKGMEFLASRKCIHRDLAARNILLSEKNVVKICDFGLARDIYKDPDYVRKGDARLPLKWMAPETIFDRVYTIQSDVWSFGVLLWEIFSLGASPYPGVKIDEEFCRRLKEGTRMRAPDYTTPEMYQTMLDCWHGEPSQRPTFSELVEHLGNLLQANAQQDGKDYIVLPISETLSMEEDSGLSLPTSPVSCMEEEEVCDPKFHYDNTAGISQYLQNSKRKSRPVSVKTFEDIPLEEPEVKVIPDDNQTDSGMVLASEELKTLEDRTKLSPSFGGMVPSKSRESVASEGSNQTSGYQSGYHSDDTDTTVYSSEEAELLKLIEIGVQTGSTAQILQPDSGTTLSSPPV
Chain of Sodium-dependent noradrenaline transporter (P23975 whole entry): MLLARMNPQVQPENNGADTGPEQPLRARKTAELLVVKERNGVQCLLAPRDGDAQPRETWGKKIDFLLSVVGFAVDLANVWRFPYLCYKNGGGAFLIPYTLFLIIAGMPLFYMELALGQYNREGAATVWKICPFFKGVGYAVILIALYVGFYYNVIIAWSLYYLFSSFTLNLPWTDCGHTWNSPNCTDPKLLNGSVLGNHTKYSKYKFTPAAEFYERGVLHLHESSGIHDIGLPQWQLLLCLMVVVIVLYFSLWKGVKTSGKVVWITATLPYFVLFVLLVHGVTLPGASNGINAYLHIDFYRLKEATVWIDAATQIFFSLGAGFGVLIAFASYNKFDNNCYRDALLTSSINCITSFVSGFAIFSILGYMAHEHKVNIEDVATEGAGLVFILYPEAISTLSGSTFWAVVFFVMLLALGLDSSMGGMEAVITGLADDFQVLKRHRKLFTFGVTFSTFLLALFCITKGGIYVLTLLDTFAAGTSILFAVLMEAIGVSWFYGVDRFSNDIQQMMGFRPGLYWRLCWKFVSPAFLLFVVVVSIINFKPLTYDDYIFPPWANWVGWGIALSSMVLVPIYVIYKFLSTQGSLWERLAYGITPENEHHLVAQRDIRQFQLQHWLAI
Chain of Sodium-dependent dopamine transporter (Q01959 whole entry): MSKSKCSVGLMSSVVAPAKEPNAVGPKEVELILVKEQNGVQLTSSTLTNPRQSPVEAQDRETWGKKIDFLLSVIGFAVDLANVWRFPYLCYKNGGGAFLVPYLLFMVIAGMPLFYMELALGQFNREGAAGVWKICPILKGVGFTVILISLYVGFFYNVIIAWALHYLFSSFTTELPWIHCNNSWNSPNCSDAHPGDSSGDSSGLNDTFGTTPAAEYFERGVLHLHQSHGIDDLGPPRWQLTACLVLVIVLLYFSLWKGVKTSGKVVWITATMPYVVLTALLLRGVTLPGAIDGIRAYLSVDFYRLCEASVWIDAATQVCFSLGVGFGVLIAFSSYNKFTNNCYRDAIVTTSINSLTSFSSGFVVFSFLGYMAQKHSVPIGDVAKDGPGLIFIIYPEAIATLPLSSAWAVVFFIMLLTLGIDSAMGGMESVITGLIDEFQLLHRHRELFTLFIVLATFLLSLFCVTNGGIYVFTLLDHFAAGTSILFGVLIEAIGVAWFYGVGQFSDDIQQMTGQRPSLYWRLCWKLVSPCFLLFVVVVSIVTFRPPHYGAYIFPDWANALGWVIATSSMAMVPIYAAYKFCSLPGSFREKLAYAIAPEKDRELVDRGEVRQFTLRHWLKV

SMILES	AC50 [1] [µM]	AC50 [2] [µM]	AC50 [3] [µM]	AC50 [4] [µM]	AC50 [5] [µM]	AC50 [6] [µM]	AC50 [7] [µM]	AC50 [8] [µM]	AC50 [9] [µM]	AC50 [10] [µM]
CCN(CC)CCNc1ccc(CO)c2sc3ccccc3c(=O)c12 [HYCANTHONE]	> 30	4.47	> 30	7.25	> 30	> 30	11.9	12.5	> 30	23.1
NC1CCN(c2c(F)cc3c(=O)c(C(=O)O)cn(C4CC4)c3c2Cl)C1 (configuration not stated) [CLINAFLOXACIN]	> 30	5.08	> 30	> 30	> 30	> 30	> 30	> 30	> 30	> 30
COc1cc2nc(N3CCN(C(=O)c4ccco4)CC3)nc(N)c2cc1OC [PRAZOSIN]	–	13.3	> 30	–	–	> 30	> 30	30	> 30	> 30
CC[C@]1(O)C[C@H]2CN(CCc3c([nH]c4ccccc34)[C@@](C(=O)OC)(c3cc4c(cc3OC)N(C=O)[C@H]3[C@@](O)(C(=O)OC)[C@H](OC(C)=O)[C@]5(CC)C=CCN6CC[C@]43[C@@H]65)C2)C1 [VINCRISTINE]	> 30	> 30	> 30	> 30	–	> 30	> 30	> 30	> 30	> 30
O=[N+]([O-])O[C@@H]1CO[C@H]2[C@@H]1OC[C@@H]2O [ISOSORBIDE MONONITRATE]	–	> 30	> 30	> 30	–	> 30	> 30	> 30	> 30	> 30
COC1=C(OC)C(=O)C(C/C=C(\C)CC/C=C(\C)CC/C=C(\C)CC/C=C(\C)CC/C=C(\C)CC/C=C(\C)CC/C=C(\C)CC/C=C(\C)CC/C=C(\C)CCC=C(C)C)=C(C)C1=O [UBIDECARENONE]	–	> 30	> 30	> 30	–	> 30	> 30	> 30	> 30	> 30
CCC(CC)(CC(=O)Nc1cccc(/C=C/c2nc(C3CCC3)cs2)c1)C(=O)O	–	> 30	> 30	> 30	–	> 30	> 30	> 30	> 10	> 3
Cc1oc(=O)oc1CN1CCN(c2cc3c(cc2F)c(=O)c(C(=O)O)c2n3C(C)S2)CC1 (configuration not stated) [PRULIFLOXACIN]	–	> 30	> 30	> 30	–	> 30	> 30	> 30	> 30	> 30
CCCCS(=O)(=O)N[C@@H](Cc1ccc(OCCCCC2CCNCC2)cc1)C(=O)O [TIROFIBAN]	–	20.4	> 30	> 30	–	> 30	> 30	> 30	> 30	> 10
OC(c1ccccc1)(c1ccccc1)C12CC[N+](CCOCc3ccccc3)(CC1)CC2	> 30	0.0044	> 30	> 30	–	> 30	2.73	0.898	> 30	> 30
C=CCCCCCCCCC(=O)O [UNDECYLENIC ACID]	–	> 30	> 30	> 30	–	> 30	> 30	> 30	> 30	> 30
COc1ccc2c(c1)N(C[C@H](C)CN(C)C)c1ccccc1S2 [LEVOMEPROMAZINE]	> 30	1.68	> 30	2.84	> 30	> 30	> 30	–	> 30	26
O=[N+]([O-])c1cn2c(n1)OC[C@@H](OCc1ccc(OC(F)(F)F)cc1)C2 [PRETOMANID]	> 30	> 30	> 30	> 30	–	> 30	> 30	> 30	> 30	> 30
O=C(Oc1ccc2c(c1)CCCN2C(=O)C(Cl)Cl)c1ccco1 [QUINFAMIDE]	25.6	> 30	20.3	> 30	–	> 30	> 30	> 30	> 30	> 30
CCCNC(C)C(=O)Nc1c(C)csc1C(=O)OC (configuration not stated) [ARTICAINE]	> 30	> 30	> 30	–	> 30	> 30	> 30	> 30	> 30	> 30
Nc1nc2nc[nH]c2c(=S)[nH]1 [THIOGUANINE]	> 30	> 30	> 30	> 30	–	> 30	> 30	> 30	> 30	> 30
COc1cc([C@@H]2c3cc4c(cc3[C@H](O)[C@H]3COC(=O)[C@H]23)OCO4)cc(OC)c1OC [PODOFILOX]	> 30	> 30	–	> 30	> 30	> 30	> 30	> 30	> 30	> 30
